Assay results: patent publication US6835722B1, “Pharmaceutical compositions and preparations for treatment of metabolic bone disease” (Yuyu Industrial Co., Ltd., priority 1999, dated 2004)

How the values were obtained:
[1] = test system: female Sprague-Dawley white rats; experiment: Bone histomorphometry: area of trabecular bone of tibia after ovariosteresis; format: in vivo; conditions: single treatment (calcitriol 0.1 μg/kg or alendronate 1.0 mg/kg), oral 5 days/week for 2 months after ovariosteresis; image analyzer, FIG. 2
Procedure: (§1) Twelve week old matured female Sprague-Dawley white rats were supplied from Daehan Biolink Co., Ltd. (Seoul, Korea) and raised in a dean room of an animal experiment laboratory in a medical school of Seoul National University. The white rats were given a week to adapt by feeding them with normal feedstuff (Purina, chow diet) and then they were divided into 6 different groups wherein each group consisted of 10 white rats with similar weight distribution, and ovariostereses were performed to all of them. The white rats were allowed to freely drink water and have food under a standardized condition of 22° C., 50% humidity, 12 h dark/light cycle.
(§2) The amount of medication administered in each group is shown in the following table 1 and the control group was administered only with equal amount of palm oil and physiological saline used in the experimental groups.
(§3) After 2 months of the onset of the above medications, 24 h urine samples were collected from the white rats by using a metabolic cage, centrifuged and then stored at −70° C. The white rats under experiment were fasted overnight decapitated, and their blood samples were collected. White rats sera were then obtained by centrifuging those blood samples and were stored at −70° C. Tibiae were separated by ablation and fixed with 4% formalin at pH 7.4.

[2] = test system: female Sprague-Dawley white rats; experiment: Measurement of serum calcium concentration (Technicon autoanalyzer); conditions: single treatment (calcitriol 0.1 μg/kg or alendronate 1.0 mg/kg), 2 months, FIG. 3
Procedure: as §1, §2, §3

[3] = test system: female Sprague-Dawley white rats; experiment: Measurement of calcium excretion in urine (calcium/creatine of 24 h urine); format: in vivo; conditions: single treatment (calcitriol 0.1 μg/kg or alendronate 1.0 mg/kg), 2 months, FIG. 4
Procedure: as §1, §2, §3

[4] = test system: female Sprague-Dawley white rats; experiment: Bone remodeling index: serum osteocalcin and alkaline phosphatase; format: in vivo; conditions: single treatment (calcitriol 0.1 μg/kg or alendronate 1.0 mg/kg), 2 months; for concentration of serum osteocalcin: FIG. 5; for activity of alkaline phosphatase: FIG. 6
Procedure: as §1, §2, §3
The activity level of serum alkaline phosphatase was measured by using Technicon autoanalyzer and the concentration of osteocalcin was measured by using a kit (OSCA test, Brahams, Berlin, Germany) which uses RIA method.

post-menopausal women = conditions: clinical study; cited from earlier work

Row | serum calcium concentration [2] | calcium excretion in urine (calcium/creatine, 24 h urine) [3] | SMILES | area of trabecular bone [1] | concentration of serum osteocalcin [4] | activity of alkaline phosphatase [4] | reduction of rate of occurrence of new spinal fracture compared to placebo group (post-menopausal women)
1 | significant increase | increased markedly | C=C1/C(=C\C=C2/CCC[C@]3(C)[C@@H]([C@H](C)CCCC(C)(C)O)CC[C@@H]23)C[C@@H](O)C[C@@H]1O [calcitriol] | not increased | slight increase | slight increase | 
2 |  |  | NCCCC(O)(P(=O)(O)O)P(=O)(O)O [alendronate, 4-amino-hydroxybutylidine-1,1-bisphosphonate] | drastically increased | decreased | decreased | about 48%
